System: B16F10 melanoma tumors
Experiment: In vivo treatment of established B16F10 melanoma tumors, single intratumoral injection
Conditions: 100 μg DOX, C57B1/6 mice
Protocol: FIG. 7 illustrates in vivo tumor regression mediated by doxobucin-loaded nanoparticles. 5×10^6 Gaussia-luciferase-expressing B16F10 melanoma cells were subcutaneously injected into left flank of C57B1/6 mice. Tumors were allowed to establish and grow to ˜0.5 cm in diameter, and mice were divided randomly into groups of 8 per condition: group 1, no treatment (PBS); group 2, treated with free doxorubicin (100 μg DOX); group 3, treated with doxorubicin-imbedded liposome (100 μg DOX); and group 4, treated with doxorubicin-imbedded nucleic acid nanoparticle (100 μg DOX). Treatments were administered by intratumoral injection in 250 μl volumes. Tumors were measured every day with calipers in two dimensions. Tumor growth curves are plotted as the mean tumor area±standard deviation. Shown at bottom left is bioluminescence imaging of a mouse with an untreated tumor (left) and a mouse that received an injection of doxorubicin-imbedded nucleic acid nanoparticles (right). Animals were sacrificed after the last measurement and the tumors were excised and fixed for histology section. […]

## COc1cccc2c1C(=O)c1c(O)c3c(c(O)c1C2=O)C[C@@](O)(C(=O)CO)C[C@@H]3O[C@H]1C[C@H](N)[C@H](O)[C@H](C)O1 [free doxorubicin, Doxorubicin]
  effect on tumor growth relative to saline-injected control animals: no effect on tumor growth
